This is an account of results in patent US4883815A, “Hydrocinnamic acid derivatives” (Hoffmann-La Roche Inc., priority 1987, dated 1989).

One series in a line: acute toxicity, single oral administration. The conditions noted are these: mouse, in vivo, po. The source says: Moreover, the Table contains data for the acute toxicity (LD50 in mg/kg in the case of single oral administration to mice).
The molecule `CCCCCCCOC(=O)CCc1cc(Cl)ccc1C(=O)CCCNC(C)=O` [H H Cl H H O(CH2)6CH3 CH3 H H Oxo] came in with an LD50 of over 5000 mg/kg.

For `CC(=O)NCCCC(=O)c1ccc(Cl)cc1CCC(N)=O` [Example 19, 2-(4-acetamidobutyryl)-5-chlorohydrocinnamide], the LD50 was over 4000 mg/kg.

Staying with this series, now noted: mouse, in vivo; acute toxicity, single oral administration to mice.
`CCOC(=O)CNC(=O)CCc1cc(Cl)ccc1C(=O)CCCNC(C)=O` [Example 30, ethyl N-[2-(4-acetamidobutyryl)-5-chlorohydrocinnamoyl]-glycinate] displayed an LD50 of over 5000 mg/kg.

`CCOC(=O)CCc1cc(Cl)ccc1C(=O)CCCNC(=O)CCCNC(C)=O` [Example 8, ethyl 2-[4-(4-acetamidobutyramido)butyryl]-5-chlorohydrocinnamate] yielded an LD50 of over 5000 mg/kg.

For `CCOC(=O)CCc1cc(Cl)ccc1C(=O)CCCNC(C)=O` [Example 2, ethyl 2-(4-acetamidobutyryl)-5-chloro-hydrocinnamate], the LD50 was over 5000 mg/kg.

In the case of `CCCOC(=O)CCc1cc(Cl)ccc1C(=O)CCCNC(C)=O` [Example 3, propyl 2-(4-acetamidobutyryl)-5-chlorohydrocinnamate], the LD50 was over 5000 mg/kg.

Molecule `CC(=O)NCCCC(=O)c1ccc(Cl)cc1CCC(=O)OC(C)C` [Example 4, isopropyl 2-(4-acetamidobutyryl)-5-chlorohydrocinnamate] gave an LD50 of over 4000 mg/kg.

The molecule `CCOC(=O)CC[C@H](NC(=O)CCc1cc(Cl)ccc1C(=O)CCCNC(C)=O)C(=O)OCC` [Example 29, diethyl N-[2-(4-acetamidobutyryl)-5-chlorohydrocinnamoyl]-L-glutamate] yielded an LD50 of over 5000 mg/kg.

A word on the LD50: it is the dose at which mortality reaches 50%. Lower therefore signals greater toxicity.
